In US12616203B2, “Use of 3-isoxazolidinones compounds as selective herbicides” (FMC Corporation, priority 2014, dated 2026):

What was measured:
[1] = tested on: common chickweed (CC); test: Ex2 PRE greenhouse, % control; format: in vivo, Stellaria media; details: 28 DAT, g ai/ha by row: r12-40 2,4-DC 31.25/62.5/125/250/375 (3 rows each) + metazachlor 250/500/750 (cycling), r42-46 2,4-DC 31.25/62.5/125/250/375, r47-49 metazachlor 250/500/750
Description: Test compositions containing 2,4 DC Example 1B and metazachlor (Butisan® S, 43.1% active ingredient, BASF) and mixtures of 2-(2,4-dichlorophenyl)methyl-4,4-dimethyl-3-isoxazolidinone and metazachlor, were diluted with water to provide the appropriate test rate concentrations.
The test crops were wheat and canola (Brassica napus), the test weeds were Italian ryegrass (IR) (Lolium perenne. multiflorum), annual bluegrass (AB) (Poa annua), common lambsquarters (CL) (Chenopodium album), littleseed canarygrass (LC) (Phalaris minor), common chickweed (CC) (Stellaria media), and corn poppy (CP) (Papaver rhoeas).
For pre-emergence testing, four disposable fiber flats (6″ by 10″) for each rate of application of each herbicide solution were filled with top soil, to which seeds of each species were planted in furrows made by a template pressed on the top of the soil. The furrows were covered with soil after planting the seed and were watered well before application of the test compounds. […]
The control of weeds was evaluated in each experimental test at 21 days after treatment (DAT) for corn poppy and wheat and 28 DAT for all other species. […]
Percent control was determined by a method similar to the 0 to 100 rating system disclosed in “Research Methods in Weed Science,” 2nd ed., B. Truelove, Ed.; Southern Weed Science Society; Auburn University, Auburn, Ala., 1977.

[2] = tested on: Wild buckwheat; test: Ex12 PRE 2,4-DC + dimethenamid-P, % control 28 DAT, Colby; format: in vivo, Polygonum convolvulus
Description: The tested weeds include: wild buckwheat (Polygonum convolvulus, POLCO), velvetleaf (Abutilon theophrasti, ABUTH), cheat (Bromus secalinus, BROSE), wild oat (Avena fatua, AVEFA), radish (Raphanus sativus, RAPSN), corn poppy (Papaver rhoeas, PAPRH), yellow foxtail (Setaria pumila, SETLU), Italian ryegrass (Lolium perenne ssp. multiflorum, LOLMU). The tested crop was Oilseed rape.
This greenhouse study was conducted to assess the preemergence (PRE) weed control and oilseed rape tolerance with 2,4 DC (CS 36.7%) and dimethenamid-P (Outlook®, 63.9%) tank-mix combinations.
Metazachlor (Butisan, 43.1%) plus dimethenamid-P applied as tank mix at 500 g each was applied as commercial standard. Treatments were replicated 3 times and flats were watered after planting but before the treatment and then lightly watered after treatment application. Thereafter flats were watered and fertilized routinely.

[3] = tested on: weeds; Sugarcane (var. CTC 20); test: Ex17 PRE greenhouse; format: in vivo; details: weed and rate in the words
Description: In this example a study was conducted to determine weed efficacy and sugarcane injury when 2,4 DC or isoxaflutole are applied either alone or tank-mix as preemergence against the weeds: Ivyleaf morningglory (Ipomoea hederacea, IPOHE), hairy beggartickss (Bidens pilosa, BIDPI), yellow nutsedge (Cyperus esculentus, CYPES), large crabgrass (Digitaria sanguinalis, DIGSA), and redroot pigweed (Amaranthus retroflexus, AMARE). The crop tested in this study was Sugarcane (var. CTC 20).
To determine weed efficacy and sugarcane selectivity, 2,4 DC (SC 36%) and isoxaflutole (Balance Flexx®, 20%) were applied PRE either alone or as tank-mix partners at rates mentioned below. 2,4 DC was applied at 500, 750, and 1000 g ai/ha while isoxaflutole was applied at 80, 100, and 120 g ai/ha. […] Treatments were applied PRE to sugarcane (var. CTC 20), ivyleaf morningglory, hairy beggarticks, yellow nutsedge, large crabgrass, and redroot pigweed. Weed species were planted in fiber flats (6″×10″) containing Pennington soil. Soil was watered before application and watered lightly after application. Flats were watered and fertilized routinely after treatment application.

[4] = tested on: weeds; test: Ex22 PRE greenhouse; format: in vivo; details: 28 DAT, weed and rate in the words
Text: 2,4 DC (36.7% CS) was applied PRE at 0, 125, 170, 210, or 250 g ai/ha alone or as a tank-mix with S-metolachlor (Dual II Magnum®, 82.4%) at 0, 267, 534, 801, or 1070 g ai/ha. Pyroxasulfone plus fluthiacet-methyl (Anthem™, 23.3%) applied at 169.9 g ai/ha, and the tank-mix of mesotrione (Callisto®, 40%) at 123 g plus S-metolachlor (Dual II Magnum®, 82.4%) at 1252 g were included as a standards for comparison.
Thereafter flats were watered and fertilized routinely. Each treatment was replicated three times.

[5] = tested on: weeds; test: Ex24 PRE greenhouse; format: in vivo; details: weed and rate in the words
Text: The tested weeds include Giant foxtail (Setaria faberi, SETFA), green foxtail (Setaria virdis, SETVI), yellow foxtail (Setaria pumila, SETLU), black nightshade (Solanum nigrum, SOLNI), kochia (Kochia scoparia, KCHSC), redroot pigweed (Amaranthus retroflexus, AMARE), common ragweed (Ambrosia artemisiifolia, AMBEL), barnyardgrass (Echinochloa crus-galli, ECHCG), large crabgrass (Digitaria sanguinalis, DIGSA).
To determine PRE efficacy, five levels of 2,4 DC-21 (36.7% CS) 0, 125, 170, 210, or 250 g ai/ha and five levels of pyroxasulfone (KIH485-85WG) 0, 50, 65, 80, or 95 g ai/ha were applied either alone or as tank-mix. Additional treatments consisted of premix of pyroxasulfone plus fluthiacet-methyl (Anthem™ 23.3%) at 169.9 g ai/ha, S-metolachlor (Dual II Magnum®, 82.4%) at 1388 g, and tank-mix of mesotrione (Callisto®, 40%) at 123 g plus S-metolachlor at 1252 g. […] Treatments were applied before the emergence of black nightshade, giant foxtail, green foxtail, yellow foxtail, large crabgrass, kochia, redroot pigweed, common ragweed, and bamyardgrass. […] Flats were watered and fertilized routinely after treatment application. Each treatment was replicated three times.

`CC1(C)CON(Cc2ccc(Cl)cc2Cl)C1=O` [2,4-DC, 2-(2,4-dichlorophenyl)methyl-4,4-dimethyl-3-isoxazolidinone] was tested, and the “% Control CC” value [1] was 100%, the X ([2]; 2,4-DC alone 125 g ai/ha) was 8% and the X ([2]; 2,4-DC alone 170 g ai/ha) was 25%. The X ([2]; 2,4-DC alone 210 g ai/ha) was 28%, the X ([2]; 2,4-DC alone 250 g ai/ha) was 38% and the “weed control in words” value [3] was “Large crabgrass and redroot pigweed were controlled with 2,4 DC alone at 500 g or higher rates”. The “weed control in words” value [4] was “applied alone controlled (≥85% injury) Johnsongrass at 210 g ai/ha, common lambsquarters at 250 g and goosegrass at all rates” and the “weed control in words” value [5] was “alone controlled kochia at 210 g ai/ha, barnyardgrass and large crabgrass at 125 g, giant foxtail and green foxtail at 170 g”.
